{"source": "paper PMC9663578", "about": "“A fluorogenic probe for predicting treatment response in non-small cell lung cancer with EGFR-activating mutations” (Nature Communications, 2022)", "key": {"[1]": {"biological_target": "T1, EGFR T790M (Homo sapiens, UniProt P00533, T790M)", "T1 construct": "EGFR T790M (amino acids 668–1210, #PR8052A); purchased Thermo Fisher PR8052A", "T1 sequence (P00533 668-1210 T790M)": "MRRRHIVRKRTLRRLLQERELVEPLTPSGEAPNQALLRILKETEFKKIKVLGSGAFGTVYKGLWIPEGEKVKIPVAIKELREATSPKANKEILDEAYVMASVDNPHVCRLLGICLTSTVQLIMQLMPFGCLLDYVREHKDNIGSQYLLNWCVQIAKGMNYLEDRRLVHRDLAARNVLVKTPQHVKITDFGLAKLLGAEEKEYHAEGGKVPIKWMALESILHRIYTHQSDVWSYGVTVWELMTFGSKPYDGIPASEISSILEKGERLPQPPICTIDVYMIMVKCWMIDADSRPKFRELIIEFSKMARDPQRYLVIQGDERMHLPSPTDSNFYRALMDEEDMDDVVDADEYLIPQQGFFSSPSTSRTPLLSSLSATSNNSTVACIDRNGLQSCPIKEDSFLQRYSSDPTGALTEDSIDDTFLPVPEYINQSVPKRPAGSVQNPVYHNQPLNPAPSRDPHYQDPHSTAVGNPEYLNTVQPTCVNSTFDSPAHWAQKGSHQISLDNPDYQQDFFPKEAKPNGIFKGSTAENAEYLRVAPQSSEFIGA", "test": "Kinase inhibition assay (fluorescent mobility-shift assay);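 also: Cell-free assay with recombinant human EGFR T790M enzyme, compound preincubated with the kinase at room temperature before the reaction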", "assay_type": "biochemical", "design": "Kinase activity: unit not given here"}, "[2]": {"test_system": "HCC827 cells", "test": "MTT cytotoxicity assay", "assay_type": "cell-based", "settings": "Homo sapiens, EGFR 19del, 48 h, n=3"}, "[3]": {"test_system": "PC-9 cells", "test": "MTT cytotoxicity assay", "assay_type": "cell-based", "settings": "Homo sapiens, EGFR 19del, 48 h, n=3"}, "[4]": {"biological_target": "BSA (Bos taurus, UniProt P02769)", "sequence (P02769 25-607)": "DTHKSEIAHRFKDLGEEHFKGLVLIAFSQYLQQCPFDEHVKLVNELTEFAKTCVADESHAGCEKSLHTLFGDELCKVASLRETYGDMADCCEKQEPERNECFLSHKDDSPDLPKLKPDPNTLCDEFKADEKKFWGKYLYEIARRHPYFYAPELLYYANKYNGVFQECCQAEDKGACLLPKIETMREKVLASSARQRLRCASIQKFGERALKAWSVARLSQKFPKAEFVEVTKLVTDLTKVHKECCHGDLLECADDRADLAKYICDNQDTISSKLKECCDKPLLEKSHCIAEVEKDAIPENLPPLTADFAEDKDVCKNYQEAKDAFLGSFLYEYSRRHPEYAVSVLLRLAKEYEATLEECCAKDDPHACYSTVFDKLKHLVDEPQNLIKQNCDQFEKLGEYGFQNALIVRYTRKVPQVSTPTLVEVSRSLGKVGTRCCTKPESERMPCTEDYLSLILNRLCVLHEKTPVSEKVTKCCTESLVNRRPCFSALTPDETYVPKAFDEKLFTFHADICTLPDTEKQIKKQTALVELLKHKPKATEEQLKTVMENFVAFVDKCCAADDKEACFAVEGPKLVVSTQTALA", "test": "Fluorescence response of HX103 with BSA (control protein)", "assay_type": "binding", "settings": "Fig. 2d, n=1-3"}, "[5]": {"biological_target": "T2, EGFR (Homo sapiens, UniProt P00533)", "T2 construct": "Recombinant human EGFR (amino acids 668–1210, #PR7295B); purchased Thermo Fisher PR7295B", "T2 sequence (P00533 668-1210)": "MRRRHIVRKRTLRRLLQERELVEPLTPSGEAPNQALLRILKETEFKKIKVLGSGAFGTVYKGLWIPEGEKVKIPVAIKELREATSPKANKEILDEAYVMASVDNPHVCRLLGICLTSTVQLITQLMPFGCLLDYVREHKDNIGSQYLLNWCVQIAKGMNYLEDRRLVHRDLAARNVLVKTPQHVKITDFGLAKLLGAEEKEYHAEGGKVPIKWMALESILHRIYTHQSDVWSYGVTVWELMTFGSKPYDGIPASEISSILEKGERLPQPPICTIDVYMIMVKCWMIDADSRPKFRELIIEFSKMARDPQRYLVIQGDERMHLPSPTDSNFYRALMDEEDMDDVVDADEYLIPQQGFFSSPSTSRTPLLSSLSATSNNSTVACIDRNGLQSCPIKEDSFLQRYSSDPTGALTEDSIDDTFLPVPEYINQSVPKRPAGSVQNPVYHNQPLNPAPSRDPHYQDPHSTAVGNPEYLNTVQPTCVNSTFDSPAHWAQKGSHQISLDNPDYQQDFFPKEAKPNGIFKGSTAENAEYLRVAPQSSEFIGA", "test": "Fluorescence spectra of HX103 with EGFR, alone or with competing inhibitors (Fig. 2a)", "assay_type": "binding"}, "[6]": {"test_system": "Hela cells", "test": "FACS assay in cultured cells", "settings": "for HX103 dose-dependent signal (Supplementary Fig. 18): 20 µM = 100", "description": "(§1) Briefly, the cultured cells were seeded on the petri dish and counted using Count star BioMed automated cell counter. Around 10^6 live-cells were collected and were pelleted (2000×g, 3 min), followed by washing with PBS (2x). Cells were then resuspended in PBS buffer containing 0.1% BSA (1 × 10^6 cells/mL). […] The cell suspension was resuspended in PBS and analyzed with a FACSVerse^TM flow cytometer (BD Biosciences, LSRFortessa). About 10,000 events per tube were analyzed and the mean fluorescence intensity was detected and analyzed.\n(§2) For the FACS assay with EGFR antibody, around 10^6 live-cells were collected and washed with PBS (2x). The cells were fixed by 400 µL 4% paraformaldehyde for 15 min at room temperature, followed by permeabilization with 0.1% Triton X-100 for 10 min and blocking with 5% BSA for 30 min. […] The cells were then washed with 0.5% BSA/PBS (3x) and resuspended in 400 µL of 0.1% BSA/PBS. […] The resuspended cell suspension was then analyzed on a FACSVerseTM flow cytometer (BD Biosciences, LSRFortessa). Nonspecific fluorescence binding was omitted by Rabbit mAb IgG isotype control (#3900, CST, 1:100) and the corresponding mean fluorescence was subtracted from the signal measured with each primary antibody. About 10,000 events per tube were analyzed and the mean fluorescence intensity was detected and analyzed.\n(§3) Subsequently, the treated cells were incubated for 30 min at 37 °C, followed by washing with PBS buffer three times. […] Finally, the co-stained cells were washed with 0.5% BSA/PBS for three times and resuspended in 400 µL of 0.1% BSA/PBS. The obtained cell suspension was ready for analysis. Nonspecific fluorescence binding was omitted by Rabbit mAb IgG isotype control (#3900, CST, 1:100) as described above.\n(§4) Nonspecific fluorescence binding was omitted by Rabbit mAb IgG isotype control (#3900, CST, 1:100). […] After incubation for another 30 min at room temperature, the co-stained cells were washed with 0.5% BSA/PBS for three times and resuspended in 400 µL of 0.1% BSA/PBS. The obtained cell suspension was ready for analysis. Nonspecific fluorescence binding was omitted by Rabbit mAb IgG isotype control (#3900, CST, 1:100) as described above.\n(§5) The cells were seeded on the petri dish and cultured at the normal condition with 10% FBS, and that was changed to serum-free condition for 24 h when the cells proliferated at ~80% confluence. […] Nonspecific fluorescence binding was omitted by Rabbit mAb IgG isotype control (#3900, CST, 1:100) as described above."}, "[7]": {"test_system": "PC-9 cells", "test": "FACS assay in cultured cells", "settings": "for HX103 dose-dependent signal (Supplementary Fig. 18): 20 µM = 100", "description": "(§6) The FACS assay was performed according to the reported literatures[67],[68]. Briefly, the cultured cells were seeded on the petri dish and counted using Count star BioMed automated cell counter. Around 10^6 live-cells were collected and were pelleted (2000×g, 3 min), followed by washing with PBS (2x). Cells were then resuspended in PBS buffer containing 0.1% BSA (1 × 10^6 cells/mL). […] The cell suspension was resuspended in PBS and analyzed with a FACSVerse^TM flow cytometer (BD Biosciences, LSRFortessa). About 10,000 events per tube were analyzed and the mean fluorescence intensity was detected and analyzed.\nas §2, §3, §4, §5"}, "[8]": {"test_system": "A431 cells", "test": "FACS assay in cultured cells", "settings": "for HX103 dose-dependent signal (Supplementary Fig. 18): 20 µM = 100", "description": "as §1, §2, §3, §4, §5"}, "[9]": {"test_system": "MCF-7 cells", "test": "FACS assay in cultured cells", "description": "as §6, §2, §3, §4, §5"}, "[10]": {"settings": "HX103 5 µM, 30 min, replicates n=1-3"}}, "note": "Several values for one entry are separate records, joined by “and”; a condition that tells them apart may be missing. Equal values may be shown once."}
{"smiles": "COc1cc2c(Nc3ccc(F)c(Cl)c3)ncnc2cc1OCCCNc1ccc(S(=O)(=O)N(C)C)c2nonc12", "note": "[HX103]", "values": [{"measurement": "Kinase activity", "setting": "[1]; T790M, Log [HX103 (M)] -9, n=1-3", "result": "98.09 and 98.85 and 98.65"}, {"measurement": "IC50", "setting": "[1]; n = 3", "result": 977, "unit": "nM"}, {"measurement": "IC50", "setting": "[2]", "result": 9300, "unit": "nM"}, {"measurement": "IC50", "setting": "[3]", "result": 1800, "unit": "nM"}, {"measurement": "Fluorescence intensity at 570 nm", "setting": "[4]", "result": "39.1473 and 21.3173 and 35.8927"}, {"measurement": "Fluorescence intensity, HX103+EGFR", "setting": "[5]; wavelength 666 nm", "result": 3266.47}, {"measurement": "Fluorescence intensity, HX103+EGFR", "setting": "[5]; wavelength 669 nm", "result": 3104.58}, {"measurement": "Fluorescence intensity, HX103+EGFR", "setting": "[5]; wavelength 671 nm", "result": 2932.33}, {"measurement": "Fluorescence intensity, HX103+EGFR", "setting": "[5]; wavelength 673 nm", "result": 2750.71}, {"measurement": "Fluorescence intensity, HX103+EGFR", "setting": "[5]; wavelength 676 nm", "result": 2569.21}, {"measurement": "Fluorescence intensity, HX103+EGFR", "setting": "[5]; wavelength 678 nm", "result": 2397.75}, {"measurement": "Fluorescence intensity, HX103+EGFR", "setting": "[5]; wavelength 681 nm", "result": 2246.21}, {"measurement": "Fluorescence intensity, HX103+EGFR", "setting": "[5]; wavelength 683 nm", "result": 2119.91}, {"measurement": "Fluorescence intensity, HX103+EGFR", "setting": "[5]; wavelength 686 nm", "result": 2016.43}, {"measurement": "Fluorescence intensity, HX103+EGFR", "setting": "[5]; wavelength 688 nm", "result": 1932.61}, {"measurement": "Fluorescence intensity, HX103+EGFR", "setting": "[5]; wavelength 690 nm", "result": 1865.3}, {"measurement": "Fluorescence intensity, HX103+EGFR", "setting": "[5]; wavelength 693 nm", "result": 1811.29}, {"measurement": "Fluorescence intensity, HX103+EGFR", "setting": "[5]; wavelength 695 nm", "result": 1767.27}, {"measurement": "Fluorescence intensity, HX103+EGFR", "setting": "[5]; wavelength 698 nm", "result": 1729.9}, {"measurement": "Fluorescence intensity, HX103+EGFR", "setting": "[5]; wavelength 700 nm", "result": 1695.87}, {"measurement": "normalized MFI of HX103 labeling", "setting": "[6]; [10]", "result": "54.5064% and 65.6652% and 60.0858%"}, {"measurement": "EGFR(+) HX103 (+) (%)", "setting": "[6]; HX103 5 µM, replicates n=1-3", "result": "13.055% and 13.1% and 19.51%"}, {"measurement": "EGFR(+) HX103 (+) (%) AVE", "setting": "[6]; Hela, AVE of n=3", "result": 15.2217, "unit": "%"}, {"measurement": "HX103 (+) (%) AVE", "setting": "[6]; Hela, AVE of n=3", "result": 15.7267, "unit": "%"}, {"measurement": "HX103 dose-dependent signal (Supplementary Fig. 18)", "setting": "[6]; Hela, HX103 0.37 µM", "result": "10.7485 and 20.011 and 16.0693"}, {"measurement": "HX103 dose-dependent signal (Supplementary Fig. 18)", "setting": "[6]; Hela, HX103 1.1 µM", "result": "23.8614 and 34.4348 and 25.4882"}, {"measurement": "HX103 dose-dependent signal (Supplementary Fig. 18)", "setting": "[6]; Hela, HX103 3.3 µM", "result": "36.4324 and 54.3602 and 56.4764"}, {"measurement": "HX103 dose-dependent signal (Supplementary Fig. 18)", "setting": "[6]; Hela, HX103 10 µM", "result": "67.5297 and 65.6787 and 69.9637"}, {"measurement": "HX103 dose-dependent signal (Supplementary Fig. 18)", "setting": "[6]; Hela, HX103 15 µM", "result": "106.382 and 89.2391 and 92.3446"}, {"measurement": "HX103 dose-dependent signal (Supplementary Fig. 18)", "setting": "[6]; Hela, HX103 20 µM", "result": 100}, {"measurement": "HX103 signal (Supplementary Fig. 7)", "setting": "[6]; Hela, HX103 alone or with Gefitinib, replicates n=1-3", "result": "110.043 and 93.8574 and 96.1"}, {"measurement": "EGFR(+) HX103 (+) (%)", "setting": "[6]; Hela, replicates n=1-3", "result": "19.51% and 13.055% and 13.1%"}, {"measurement": "HX103(+) (%)", "setting": "[6]; Hela, replicates n=1-3", "result": "15.88% and 13.1% and 18.2%"}, {"measurement": "normalized MFI of HX103 labeling", "setting": "[7]; [10]", "result": "81.9742% and 91.6309% and 86.8026%"}, {"measurement": "EGFR(+) HX103 (+) (%)", "setting": "[7]; HX103 5 µM, replicates n=1-3", "result": "64.51% and 67.13% and 48.39%"}, {"measurement": "EGFR(+) HX103 (+) (%) AVE", "setting": "[7]; PC-9, AVE of n=3", "result": 60.01, "unit": "%"}, {"measurement": "HX103 (+) (%) AVE", "setting": "[7]; PC-9, AVE of n=3", "result": 59.6433, "unit": "%"}, {"measurement": "HX103 dose-dependent signal (Supplementary Fig. 18)", "setting": "[7]; PC-9, HX103 0.37 µM", "result": "18.3072 and 15.0075 and 16.6544"}, {"measurement": "HX103 dose-dependent signal (Supplementary Fig. 18)", "setting": "[7]; PC-9, HX103 3.3 µM", "result": "59.5109 and 51.9447 and 55.7208"}, {"measurement": "HX103 dose-dependent signal (Supplementary Fig. 18)", "setting": "[7]; PC-9, HX103 10 µM", "result": "68.1021 and 78.5978 and 73.3469"}, {"measurement": "HX103 dose-dependent signal (Supplementary Fig. 18)", "setting": "[7]; PC-9, HX103 15 µM", "result": "80.0389 and 87.1198 and 83.5744"}, {"measurement": "HX103 dose-dependent signal (Supplementary Fig. 18)", "setting": "[7]; PC-9, HX103 20 µM", "result": 100}, {"measurement": "HX103 signal (Supplementary Fig. 7)", "setting": "[7]; PC-9, HX103 alone or with Gefitinib, replicates n=1-3", "result": "103.242 and 99.7186 and 97.0394"}, {"measurement": "EGFR(+) HX103 (+) (%)", "setting": "[7]; PC-9, replicates n=1-3", "result": "48.39% and 64.51% and 67.13%"}, {"measurement": "HX103(+) (%)", "setting": "[7]; PC-9, replicates n=1-3", "result": "59.69% and 66.68% and 52.56%"}, {"measurement": "EGFR(+) HX103 (+) (%) AVE", "setting": "[8]; A431, AVE of n=3", "result": 62.105, "unit": "%"}, {"measurement": "HX103 (+) (%) AVE", "setting": "[8]; A431, AVE of n=3", "result": 75.74, "unit": "%"}, {"measurement": "HX103 dose-dependent signal (Supplementary Fig. 18)", "setting": "[8]; A431, HX103 0.37 µM", "result": "15.6053 and 17.5852 and 16.5942"}, {"measurement": "HX103 dose-dependent signal (Supplementary Fig. 18)", "setting": "[8]; A431, HX103 1.1 µM", "result": "27.0427 and 32.7871 and 29.9049"}, {"measurement": "HX103 dose-dependent signal (Supplementary Fig. 18)", "setting": "[8]; A431, HX103 3.3 µM", "result": "44.6928 and 49.6432 and 47.158"}, {"measurement": "HX103 dose-dependent signal (Supplementary Fig. 18)", "setting": "[8]; A431, HX103 10 µM", "result": "77.4475 and 86.2684 and 81.868"}, {"measurement": "HX103 dose-dependent signal (Supplementary Fig. 18)", "setting": "[8]; A431, HX103 15 µM", "result": "96.5825 and 89.3875 and 92.975"}, {"measurement": "HX103 dose-dependent signal (Supplementary Fig. 18)", "setting": "[8]; A431, HX103 20 µM", "result": 100}, {"measurement": "HX103 signal (Supplementary Fig. 7)", "setting": "[8]; A431, HX103 alone or with Gefitinib, replicates n=1-3", "result": "114.212 and 76.0875 and 109.7"}, {"measurement": "EGFR(+) HX103 (+) (%)", "setting": "[8]; A431, replicates n=1-3", "result": "55.07% and 64.605% and 66.64%"}, {"measurement": "HX103(+) (%)", "setting": "[8]; A431, replicates n=1-3", "result": "96.31% and 66.39% and 64.52%"}, {"measurement": "normalized MFI of HX103 labeling", "setting": "[8]; [10]", "result": "83.2618% and 101.288% and 92.2747%"}, {"measurement": "EGFR(+) HX103 (+) (%)", "setting": "[8]; HX103 5 µM, replicates n=1-3", "result": "~ 60% and 64.605% and 66.64% and 55.07%"}, {"measurement": "normalized MFI of HX103 labeling", "setting": "[9]; [10]", "result": "25.1073% and 53.6481% and 30.8069%"}, {"measurement": "EGFR(+) HX103 (+) (%)", "setting": "[9]; HX103 5 µM, replicates n=1-3", "result": "0.04% and 0.02% and 0.09%"}, {"measurement": "EGFR(+) HX103 (+) (%) AVE", "setting": "[9]; MCF-7, AVE of n=3", "result": 0.05, "unit": "%"}, {"measurement": "HX103 (+) (%) AVE", "setting": "[9]; MCF-7, AVE of n=3", "result": 0.5297, "unit": "%"}, {"measurement": "EGFR(+) HX103 (+) (%)", "setting": "[9]; MCF-7, replicates n=1-3", "result": "0.09% and 0.04% and 0.02%"}, {"measurement": "HX103(+) (%)", "setting": "[9]; MCF-7, replicates n=1-3", "result": "-0.051% and 1.21% and 0.43%"}]}
